# According to patent publication US4940780A, “Basically substituted phenylacetonitriles, their preparation and drugs containing these compounds” (BASF Aktiengesellschaft, priority 1986, dated 1990):
# Counter-ions that a name gives are not always drawn.
# Key:
# serotonin-S2-receptor = molecular target: T1, serotonin-S2-receptor (Rattus norvegicus, UniProt P14842); assay: Bond to the serotonin-S2-receptor: displacement of the specific ^3H-ketanserine bond in membrane preparations of cerebral cortex of the rat; format: binding; conditions: rat cerebral cortex membranes; 1 nM ^3H-ketanserine; 60 minutes, room temperature; 10^-10 to 10^-6 M test substance
# T1 construct: membrane preparations of cerebral cortex of the rat; from tissue; host or cells: rat cerebral cortex, membrane preparation
# Protocol: (b) Bond to the serotonin-S2 -receptor
# Displacement of the specific ^3 H-ketanserine bond in membrane preparations of cerebral cortex of the rat
# (§1) Membrane homogenate was incubated for 60 minutes at room temperature with increasing concentrations (from 10^-10 to 10^-6 M) of test substance and a fixed concentration of 1 nM of radioligand ((S)-^3 H-devapamil or ^3 H-ketanserine). The bound and the free radioligand were separated by filtration over a glass fiber filter, and the amount of radioligand retained on the filter was determined by liquid scintillation measurement. 2 tests with 3 batches were carried out.
# (§2) The competition constants (Ki values in nM) were calculated by nonlinear regression analysis on an IBM computer using the program Ligand from Munson and Rodbard (Analytical Biochemistry 107 (1980), 220).
# calcium channel = molecular target: T2, calcium channel (Cavia porcellus, UniProt A0A286X7I0); assay: Bond to the calcium channel: displacement of the specific (S)-^3H-devapamil bond in membrane preparations of guinea pig skeletal muscle; format: binding; conditions: guinea pig skeletal muscle membranes; 1 nM (S)-^3H-devapamil; 60 minutes, room temperature; 10^-10 to 10^-6 M test substance
# T2 construct: membrane preparations of guinea pig skeletal muscle; from tissue; host or cells: guinea pig skeletal muscle, membrane preparation
# Protocol: (a) Bond to the calcium channel Displacement of the specific (S)-^3 H-devapamil bond in membrane preparations of guinea pig skeletal muscle
# as §1, §2
# T1 sequence (P14842 whole entry): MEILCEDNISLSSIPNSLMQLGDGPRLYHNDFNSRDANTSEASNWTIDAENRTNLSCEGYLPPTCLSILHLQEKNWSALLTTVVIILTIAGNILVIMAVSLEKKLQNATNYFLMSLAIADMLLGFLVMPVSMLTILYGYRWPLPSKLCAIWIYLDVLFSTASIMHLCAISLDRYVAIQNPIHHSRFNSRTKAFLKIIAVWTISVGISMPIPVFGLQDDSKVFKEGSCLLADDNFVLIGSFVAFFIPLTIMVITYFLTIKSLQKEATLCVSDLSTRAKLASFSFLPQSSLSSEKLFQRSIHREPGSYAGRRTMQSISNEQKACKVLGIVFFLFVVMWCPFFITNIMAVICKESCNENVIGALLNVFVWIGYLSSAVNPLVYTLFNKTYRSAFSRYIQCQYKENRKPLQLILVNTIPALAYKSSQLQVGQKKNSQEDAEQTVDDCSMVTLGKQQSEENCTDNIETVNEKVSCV
# T2 sequence (A0A286X7I0 1-1867): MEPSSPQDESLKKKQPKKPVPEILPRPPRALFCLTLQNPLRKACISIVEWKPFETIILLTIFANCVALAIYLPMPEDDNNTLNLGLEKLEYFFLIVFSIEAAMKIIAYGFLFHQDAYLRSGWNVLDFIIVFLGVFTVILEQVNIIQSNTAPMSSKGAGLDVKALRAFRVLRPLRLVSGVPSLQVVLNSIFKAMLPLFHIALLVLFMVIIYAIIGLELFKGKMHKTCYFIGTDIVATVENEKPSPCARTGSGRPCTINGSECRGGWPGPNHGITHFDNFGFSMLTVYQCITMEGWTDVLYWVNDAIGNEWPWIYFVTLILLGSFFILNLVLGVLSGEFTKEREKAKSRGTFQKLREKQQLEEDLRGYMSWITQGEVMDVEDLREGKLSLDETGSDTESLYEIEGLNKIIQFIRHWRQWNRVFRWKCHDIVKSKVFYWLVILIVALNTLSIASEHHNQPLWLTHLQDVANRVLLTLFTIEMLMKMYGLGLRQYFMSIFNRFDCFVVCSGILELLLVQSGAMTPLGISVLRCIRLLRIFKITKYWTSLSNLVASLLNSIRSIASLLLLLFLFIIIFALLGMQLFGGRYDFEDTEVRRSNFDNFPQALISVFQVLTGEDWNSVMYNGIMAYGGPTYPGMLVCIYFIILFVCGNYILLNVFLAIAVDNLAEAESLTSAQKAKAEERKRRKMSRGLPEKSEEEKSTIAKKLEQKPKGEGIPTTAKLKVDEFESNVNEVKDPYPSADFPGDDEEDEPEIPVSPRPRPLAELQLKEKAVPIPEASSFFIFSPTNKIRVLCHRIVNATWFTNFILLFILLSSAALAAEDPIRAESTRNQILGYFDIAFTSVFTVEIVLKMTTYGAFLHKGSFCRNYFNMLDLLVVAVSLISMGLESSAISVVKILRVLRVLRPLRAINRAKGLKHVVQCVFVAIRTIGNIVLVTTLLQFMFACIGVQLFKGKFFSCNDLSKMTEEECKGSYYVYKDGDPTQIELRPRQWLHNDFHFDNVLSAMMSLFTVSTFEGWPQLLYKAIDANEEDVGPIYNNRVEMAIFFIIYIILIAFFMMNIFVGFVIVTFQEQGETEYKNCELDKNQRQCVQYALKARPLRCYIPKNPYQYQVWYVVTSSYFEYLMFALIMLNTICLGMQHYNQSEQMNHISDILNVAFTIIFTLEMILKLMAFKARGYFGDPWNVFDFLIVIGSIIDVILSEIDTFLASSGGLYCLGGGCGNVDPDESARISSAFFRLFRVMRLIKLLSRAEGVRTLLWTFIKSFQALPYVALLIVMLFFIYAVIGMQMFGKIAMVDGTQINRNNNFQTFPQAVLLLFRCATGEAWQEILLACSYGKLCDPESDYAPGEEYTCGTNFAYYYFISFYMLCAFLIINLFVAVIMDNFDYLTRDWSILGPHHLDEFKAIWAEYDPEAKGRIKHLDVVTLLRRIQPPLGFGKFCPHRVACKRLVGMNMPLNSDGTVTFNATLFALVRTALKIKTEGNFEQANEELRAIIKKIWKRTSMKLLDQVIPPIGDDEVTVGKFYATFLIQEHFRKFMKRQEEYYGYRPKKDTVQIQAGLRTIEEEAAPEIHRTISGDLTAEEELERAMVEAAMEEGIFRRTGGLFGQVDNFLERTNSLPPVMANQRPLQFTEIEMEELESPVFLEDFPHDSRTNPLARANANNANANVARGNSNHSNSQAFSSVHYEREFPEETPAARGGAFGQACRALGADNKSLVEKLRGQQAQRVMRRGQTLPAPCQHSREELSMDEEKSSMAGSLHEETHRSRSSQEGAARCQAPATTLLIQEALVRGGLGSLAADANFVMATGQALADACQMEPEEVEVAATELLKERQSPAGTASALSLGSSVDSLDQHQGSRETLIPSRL
SMILES,Ki (serotonin-S2-receptor),Ki (calcium channel)
"COc1cccc(C(C#N)(CCCN(C)CCC2CCCCC2)C(C)C)c1 (stereo not drawn) [Example 1, 5-[N-methyl-N-(2-cyclohexyl)-ethyl]-amino-2-(3-methoxyphenyl)-2-isopropylvaleronitrile]",5 nM,16.2 nM
"CCCCCCCCCCN(C)CCCC(C#N)(c1cc(OC)c(OC)c(OC)c1)C(C)C (stereo not drawn) [Example 2, 5-[N-methyl-N-(n-decyl)]-amino-2-(3,4,5-trimethoxyphenyl)-2-isopropylvaleronitrile]",21 nM,19.1 nM
"CCCCCCCCN(C)CCCC(C#N)(c1cc(OC)c(OC)c(OC)c1)C(C)C (stereo not drawn) [Example 4, 5-[N-methyl-N-(n-octyl)]-amino-2-(3,4,5-trimethoxyphenyl)-2-isopropylvaleronitrile]",26.4 nM,5.2 nM
"CCOc1cc(OCC)cc(C(C#N)(CCCN(C)CCC2CCCCC2)C(C)C)c1 (stereo not drawn) [Example 5, 5-[N-methyl-N-(2-cyclohexyl)-ethyl]-amino-2-(3,5-diethoxyphenyl)-2-isopropylvaleronitrile]",20 nM,11.9 nM
"CCCCCCCCN(C)CCC[C@@](C#N)(c1cc(OC)c(OC)c(OC)c1)C(C)C [Example 6, (S)-5-[N-methyl-N-(n-octyl)]-amino-2-(3,4,5-trimethoxyphenyl)-2-isopropylvaleronitrile]",11.2 nM,2.9 nM
"COc1cc(OC)cc(C(C#N)(CCCN(C)CCC2CCCCC2)C(C)C)c1 (stereo not drawn) [Example 10, 5-[N-methyl-N-(2-cyclohexyl)-ethyl]-amino-2-(3,5-dimethoxyphenyl)-2-isopropylvaleronitrile]",2.8 nM,9.2 nM
"COc1cc(C(C#N)(CCCN(C)CCC2CCCCC2)C(C)C)cc(OC)c1OC (stereo not drawn) [Example 11, 5-[N-methyl-N-(2-cyclohexyl)-ethyl]-amino-2-(3,4,5-trimethoxyphenyl)-2-isopropylvaleronitrile]",10.7 nM,5.8 nM
"COc1cc([C@](C#N)(CCCN(C)CCC2CCCCC2)C(C)C)cc(OC)c1OC [Example 13, (S)-5-[N-methyl-N-(2-cyclohexyl)-ethyl]-amino-2-(3,4,5-trimethoxyphenyl)-2-isopropylvaleronitrile hydrochloride]",3.3 nM,3.4 nM
"CCCCC=CCCN(C)CCCC(C#N)(c1cc(OC)c(OC)c(OC)c1)C(C)C (stereo not drawn) [Example 15, 5-[N-methyl-N-(n-octen-3-yl)]-amino-2-(3,4,5-trimethoxyphenyl)-2-isopropylvaleronitrile hydrochloride]",6.8 nM,7.5 nM
"COc1ccc(C(C#N)(CCCN(C)CCC2CCCCC2)C(C)C)c([N+](=O)[O-])c1OC (stereo not drawn) [Example 16, 5-[N-methyl-N-(2-cyclohexyl)ethyl]-amino-2-(2-nitro-3,4-dimethoxyphenyl)-2-isopropylvaleronitrile]",3.6 nM,34.2 nM
"CC(C)C(C#N)(CCCN(C)CCC1=CCCCC1)c1ccccc1 (stereo not drawn) [Example 18, 5-(N-methyl-N-[2-(cyclohexen-1-yl)ethyl]}-amino-2-phenyl-2-isopropylvaleronitrile]",4 nM,36.7 nM
"CCCCCCN(C)CCCC(C#N)(c1cc(OC)c(OC)c(OC)c1)C(C)C (stereo not drawn) [Example 23, 5-[N-methyl-N-(n-hexyl)]-amino-2-(3,4,5-trimethoxyphenyl)-2-isopropylvaleronitrile hydrochloride]",48.4 nM,11.6 nM
"CCCCCCN(C)CCC[C@@](C#N)(c1cc(OC)c(OC)c(OC)c1)C(C)C [Example 24, (S)-5-[N-methyl-N-(n-hexyl)]-amino-2-(3,4,5-trimethoxyphenyl)-2-isopropylvaleronitrile hydrochloride]",21.1 nM,8.6 nM
"COc1ccc(CCN(C)CCCC(C#N)(c2ccc(OC)c(OC)c2)C(C)C)cc1OC (stereo not drawn) [Verapamil, verapamil, reference compound]",177 nM,
